Earlier results as cited in patent US10206934B2, “Implants and methods for treating inflammation-mediated conditions of the eye” (Allergan, Inc., priority 2000, dated 2019).

Conditions: fold less potent; 25 mg equivalent to 1 mg dexamethasone

In the case of `C[C@]12CCC(=O)C=C1CC[C@@H]1[C@@H]2[C@@H](O)C[C@@]2(C)[C@H]1CC[C@]2(O)C(=O)CO` [hydrocortisone], the “Potency relative to dexamethasone” value is given as “approximately twentyfivefold”.
